{"source": "paper PMC6403188", "about": "“Species-Specific Structural Requirements of Alpha-Branched Trehalose Diester Mincle Agonists” (Frontiers in Immunology, 2019)", "biological_target": "T1, mouse Mincle (Mus musculus, UniProt Q9R0Q8)", "T1 construct": "host or cells: HEK (HEK-Blue) cells with NF-κB-driven SEAP reporter", "T1 sequence (Q9R0Q8 1-214)": "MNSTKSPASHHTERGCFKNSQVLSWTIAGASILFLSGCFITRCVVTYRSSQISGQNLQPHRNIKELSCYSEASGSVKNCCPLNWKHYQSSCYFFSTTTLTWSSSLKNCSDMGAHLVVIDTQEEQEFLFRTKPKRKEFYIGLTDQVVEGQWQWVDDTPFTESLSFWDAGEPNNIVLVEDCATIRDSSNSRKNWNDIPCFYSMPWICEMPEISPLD", "experiment": "HEK cells expressing mouse Mincle with NF-κB-driven SEAP reporter", "format": "cell-based", "protocol": "Human and mouse Mincle expressing HEK cells were obtained from Invivogen (San Diego, CA). Cells were cultured according to the manufactures instructions in DMEM with 10% FBS, 50 U/ml penicillin, […] streptomycin, […] Normocin, 2 mM L-glutamine, 30 μg/ml blasticidin, 1 μg/ml puromycin and 1x HEK-Blue™ CLR Selection. For assay, indicated compounds were serially diluted in diluent (50%IPA/50% isooctane), 20 μl of a 10x final concentration were applied to the bottom of a 96-well tissue culture plate and the solvent was evaporated for >1 h in a biosafety hood. HEK cells were applied to the plates at a density of 3 × 10^5 cells/well and incubated for 18–24 h at 37°C. Cell supernatants were harvested and analyzed via the manufacturer's instructions using Hek-Blue^TM Detection. SEAP activity was assessed by reading the optical density (OD) at 620–655 nm with a microplate reader; data are expressed as the fold change in OD over vehicle treated cells.\nTo investigate the capacity of these molecules to bind to and activate the Mincle receptor, we used human embryonic kidney (HEK) cells expressing the human or mouse Mincle receptor along with an NF-κB-driven secreted embryonic alkaline phosphatase (SEAP) reporter. Many of the αTDE compounds were able to induce production of SEAP in a dose dependent manner (Figure 2). HEK null cells (HEK cells containing the NF-kB reporter without Mincle receptor) were used as a negative controls to confirm the receptor specificity of the compounds in HEK cells expressing human or mouse Mincle reporter (Supplemental Figure 4). […] The relative activity of TDM and TDB in the human and mouse HEK cells is consistent with the results reported by others ([20]). […] This synthetic version is a shorter chain version of the lipid-derived one reported to be “human-specific” ([28]).\nFigure 2 Activation of human or mouse Mincle in response to synthetic αTDE compounds. The indicated compounds were dissolved in 50% isopropanol/isooctane, serially diluted in vehicle and then dried to the bottom of a tissue culture plate. HEK cells transfected with human (A–C) or mouse (D–F) Mincle and an NF-κB-driven SEAP reporter were incubated with the compounds for 24 h followed by assessment of the supernatants for SEAP levels. Data are represented as fold change in OD650 over vehicle treated cells. Graphs are mean values from three independent experiments ± SEM. Table in (G) represents the average calculated EC50 and average max SEAP value (± SD, n = 3) for each compound in each cell line. […]", "data": [{"smiles": "CCCCCCCCCCCCCCCCCCCCCC(=O)OC[C@H]1O[C@H](O[C@H]2O[C@H](COC(=O)CCCCCCCCCCCCCCCCCCCCC)[C@@H](O)[C@H](O)[C@H]2O)[C@H](O)[C@@H](O)[C@@H]1O", "note": "[TDB, trehalose dibehenate, reference compound]", "values": [{"measurement": "Relative activity in mouse vs. human Mincle HEK cells", "setting": "comparison of mouse and human Mincle receptor transfected HEK cells", "value": "more potent in the mouse vs. the human"}, {"measurement": "SEAP induction / activation of mouse Mincle-expressing HEK cells (in words)", "setting": "plate-coated compound, 24 h", "value": "robust ability to activate"}]}]}
